{"source": "paper PMC8113725", "about": "“Structure–activity relationship of ipglycermide binding to phosphoglycerate mutases” (The Journal of Biological Chemistry, 2021)", "molecules": {"B1": {"name": "iPGM (protein)", "chain": "MFVALGAQIYRQYFGRRGMAMANNSSVANKVCLIVIDGWGVSEDPYGNAILNAQTPVMDKLCSGNWAQIEAHGLHVGLPEGLMGNSEVGHLNIGAGRVIYQDIVRINLAVKNNKFVTNESLVDACDRAKNGNGRLHLAGLVSDGGVHSHIDHMFALVKAIKELGVPELYLHFYGDGRDTSPNSGVGFLEQTLEFLEKTTGYGKLATVVGRYYAMDRDNRWERINVAYEAMIGGVGETSDEAGVVEVVRKRYAADETDEFLKPIILQGEKGRVQNDDTIIFFDYRADRMREISAAMGMDRYKDCNSKLAHPSNLQVYGMTQYKAEFPFKSLFPPASNKNVLAEWLAEQKVSQFHCAETEKYAHVTFFFNGGLEKQFEGEERCLVPSPKVATYDLQPEMSAAGVADKMIEQLEAGTHPFIMCNFAPPDMVGHTGVYEAAVKACEATDIAIGRIYEATQKHGYSLMVTADHGNAEKMKAPDGGKHTAHTCYRVPLTLSHPGFKFVDPADRHPALCDVAPTVLAIMGLPQPAEMTGVSIVQKI"}, "B2": {"name": "iPGM (protein)", "chain": "MAEAKNRVCLVVIDGWGISNETKGNAILNAKTPVMDELCVMNSHPIQAHGLHVGLPEGLMGNSEVGHLNIGAGRVVYQDIVRINLAVKNKTLVENKHLKEAAERAIKGNGRMHLCGLVSDGGVHSHIDHLFALITALKQLKVPKLYIQFFGDGRDTSPTSGVGFLQQLIDFVNKEQYGEISTIVGRYYAMDRDKRWERIRVCYDALIGGVGEKTTIDKAIDVIKGRYAKDETDEFLKPIILSDEGRTKDGDTLIFFDYRADRMREITECMGMERYKDLNSNIKHPKNMQVIGMTQYKAEFTFPALFPPESHKNVLAEWLSVNGLTQFHCAETEKYAHVTFFFNGGVEKQFANEERCLVVSPKVATYDLEPPMSSAAVADKVIEQLHMKKHPFVMCNFAPPDMVGHTGVYEAAVKAVEATDIAIGRIYEACKKNDYILMVTADHGNAEKMMAPDGSKHTAHTCNLVPFTCSSMKYKFMDKLPDREMALCDVAPTVLKVMGVPLPSEMTGQPLVNEA"}}, "key": {"C. elegans iPGM [1]": {"biological_target": "T1, C. elegans iPGM (Caenorhabditis elegans, UniProt G5EFZ1)", "assay": "SPR binding kinetics and saturation binding, biotinylated iPGM on Biotin CAPture chip (Biacore S200)"}, "B. malayi iPGM": {"biological_target": "T2, B. malayi iPGM (Brugia malayi, UniProt Q4VWF8)", "T2 sequence (Q4VWF8 1-515)": "B2 chain", "assay": "biochemical", "type": "binding"}, "E. coli iPGM [2]": {"biological_target": "T3, E. coli iPGM (Escherichia coli, UniProt P37689)", "assay": "SPR binding kinetics and saturation binding, biotinylated iPGM on Biotin CAPture chip (Biacore S200)", "conditions": "for koff / kon: LoQ = limit of quantitation"}, "D. immitis iPGM": {"biological_target": "D. immitis iPGM (Dirofilaria immitis, UniProt F4ZE01)", "assay": "biochemical", "conditions": "Di iPGM Ave IC50 (M)"}, "E. coli iPGM [3]": {"biological_target": "T3, E. coli iPGM", "assay": "biochemical"}, "C. elegans iPGM [4]": {"biological_target": "T1, C. elegans iPGM", "conditions": "read-out: KD, prior estimate; zone boundary analysis from a cross-titration of C. elegans iPGM enzyme versus Ce-2; cited from earlier work"}, "C. elegans iPGM [5]": {"biological_target": "T1, C. elegans iPGM", "assay": "PGM enzyme assay (enolase–pyruvate kinase coupled, Kinase-Glo Plus end point) and IC50 determination", "type": "biochemical", "conditions": "for IC50: iPGM ortholog not given"}, "Ce-2 Thr13Ser": {"biological_target": "T4, Ce-2 Thr13Ser (synthetic construct, thioether N-8)", "T4 chain": "{CH2CO}-[dY]DYPGDYCYLYGSC", "assay": "SPR"}, "Ce-2": {"biological_target": "T5, Ce-2 (synthetic construct, thioether N-8)", "T5 chain": "{CH2CO}-[dY]DYPGDYCYLYGTC", "assay": "SPR"}, "Ce-1 NHOH": {"biological_target": "T6, Ce-1 NHOH (synthetic construct, thioether N-8; SMILES …)", "T6 chain": "{CH2CO}-[dY]DYPGDHCYLYGT-{NHOH}", "assay": "SPR"}, "[6]": {"conditions": "SPR, 25 °C, global fit to 1:1 binding model"}, "[7]": {"conditions": "SPR, Req hyperbolic fit where steady state reached, else koff/kon"}, "[8]": {"conditions": "Supplementary Table 5, SPR, E.c. iPGM"}}, "note": "Where two headings read alike, the source gives them in different places. Bridge positions count the residues as written; N and C are the ends. Square brackets hold non-standard residues; d marks the D form. Ends that are not written are not given here. Peptide text beside a SMILES is read from it. * marks the point of attachment. NHOH = ON*", "data": [{"molecule": "CC(C)C[C@H](NC(=O)[C@H](Cc1ccc(O)cc1)NC(=O)[C@@H]1CSCC(=O)N[C@H](Cc2ccc(O)cc2)C(=O)N[C@@H](CC(=O)O)C(=O)N[C@@H](Cc2ccc(O)cc2)C(=O)N2CCC[C@H]2C(=O)NCC(=O)N[C@@H](CC(=O)O)C(=O)N[C@@H](Cc2ccc(O)cc2)C(=O)N1)C(=O)N[C@@H](Cc1ccc(O)cc1)C(=O)NCC(=O)N[C@H](C(=O)N[C@@H](CS)C(N)=O)[C@@H](C)O", "note": "[Ce-2]", "values": [{"measurement": "Kd", "setting": "C. elegans iPGM [1]", "value": 0.0382, "unit": "nM"}, {"measurement": "koff", "setting": "C. elegans iPGM [1]", "value": "3.23e-05", "unit": "s⁻¹"}, {"measurement": "kon", "setting": "C. elegans iPGM [1]", "value": "1.11e+06", "unit": "M⁻¹ s⁻¹"}, {"measurement": "koff", "setting": "C. elegans iPGM [1]; [6]", "value": "3.2e-05", "unit": "s⁻¹"}, {"measurement": "kon", "setting": "C. elegans iPGM [1]; [6]", "value": "1.1e+06", "unit": "M⁻¹ s⁻¹"}, {"measurement": "koff", "setting": "B. malayi iPGM", "value": 0.000224, "unit": "s⁻¹"}, {"measurement": "kon", "setting": "B. malayi iPGM", "value": 482000, "unit": "M⁻¹ s⁻¹"}, {"measurement": "Kd", "setting": "B. malayi iPGM; [7]", "value": 0.5, "unit": "nM"}, {"measurement": "Kd", "setting": "B. malayi iPGM; Supplementary Table 5, SPR, B.m. iPGM, unit inferred", "value": 0.47, "unit": "nM"}, {"measurement": "koff", "setting": "B. malayi iPGM; [6]", "value": 0.00022, "unit": "s⁻¹"}, {"measurement": "kon", "setting": "B. malayi iPGM; [6]", "value": 480000, "unit": "M⁻¹ s⁻¹"}, {"measurement": "koff", "setting": "E. coli iPGM [2]; SPR, 25 °C, global fit to 1:1 binding model, read-out: koff", "value": 0.0048, "unit": "s⁻¹"}, {"measurement": "kon", "setting": "E. coli iPGM [2]; SPR, 25 °C, global fit to 1:1 binding model, read-out: kon", "value": 100000, "unit": "M⁻¹ s⁻¹"}, {"measurement": "Kd", "setting": "E. coli iPGM [2]; [7]", "value": "~70", "unit": "nM"}, {"measurement": "koff", "setting": "E. coli iPGM [2]; [8]", "value": 0.00484, "unit": "s⁻¹"}, {"measurement": "kon", "setting": "E. coli iPGM [2]; [8]", "value": 102000, "unit": "M⁻¹ s⁻¹"}, {"measurement": "Kd", "setting": "E. coli iPGM [2]; Supplementary Table 5, SPR, E.c. iPGM, unit inferred", "value": 69.2, "unit": "nM"}, {"measurement": "IC50", "setting": "D. immitis iPGM", "value": "8.27e-10", "unit": "M"}, {"measurement": "IC50", "setting": "E. coli iPGM [3]; IC50", "value": "> 100", "unit": "nM"}, {"measurement": "IC50", "setting": "E. coli iPGM [3]; […]", "value": 129, "unit": "nM"}, {"measurement": "Kd", "setting": "C. elegans iPGM [4]", "value": 0.07, "unit": "nM"}]}, {"molecule": "CC[C@H](C)[C@H](NC(=O)[C@H](Cc1ccc(O)cc1)NC(=O)[C@@H]1CSCC(=O)N[C@H](Cc2ccc(O)cc2)C(=O)N[C@@H](CC(=O)O)C(=O)N[C@@H](Cc2ccc(O)cc2)C(=O)N2CCC[C@H]2C(=O)NCC(=O)N[C@@H](CC(=O)O)C(=O)N[C@@H](Cc2ccc(O)cc2)C(=O)N1)C(=O)N[C@@H](Cc1ccc(O)cc1)C(N)=O", "note": "[Ce-2d L10I]", "values": [{"measurement": "IC50", "setting": "C. elegans iPGM [5]; IC50, text, C. elegans by contrast with nematode orthologs", "value": 25, "unit": "nM"}, {"measurement": "IC50", "setting": "D. immitis iPGM", "value": "5.03e-07", "unit": "M"}]}, {"molecule": "CC(=O)N[C@@H](Cc1ccc(O)cc1)C(=O)NCC(=O)N[C@H](C(=O)N[C@@H](CS)C(N)=O)[C@@H](C)O", "note": "[Ac-YGTCNH2, Ac-YGTC-CONH2] (Ac-YGTC-NH2)", "values": [{"measurement": "IC50", "setting": "C. elegans iPGM [5]; IC50, metal-ion–coordinating sequence alone", "value": "> 500000", "unit": "nM"}, {"measurement": "IC50", "setting": "D. immitis iPGM", "value": "> 0.001", "unit": "M"}]}, {"molecule": "CC(C)C[C@@H]1NC(=O)[C@H](Cc2ccc(O)cc2)NC(=O)[C@H](CS)NC(=O)[C@H](Cc2ccc(O)cc2)NC(=O)[C@H](CC(=O)O)NC(=O)CNC(=O)[C@@H]2CCCN2C(=O)[C@H](Cc2ccc(O)cc2)NC(=O)[C@H](CC(=O)O)NC(=O)[C@@H](Cc2ccc(O)cc2)NC(=O)CSC[C@@H](C(N)=O)NC(=O)[C@H]([C@@H](C)O)NC(=O)CNC(=O)[C@H](Cc2ccc(O)cc2)NC1=O", "note": "[Ce-2 [Y1-->C14]]", "values": [{"measurement": "inhibitory activity", "setting": "C. elegans iPGM [5]", "value": "inactive"}, {"measurement": "IC50", "setting": "D. immitis iPGM", "value": "6.52e-06", "unit": "M"}]}, {"molecule": "B1", "values": [{"measurement": "Kd", "setting": "Ce-2 Thr13Ser", "value": 0.029, "unit": "nM"}, {"measurement": "Kd", "setting": "Ce-2", "value": 0.038, "unit": "nM"}, {"measurement": "Kd", "setting": "Ce-1 NHOH", "value": 0.11, "unit": "nM"}]}, {"molecule": "B2", "values": [{"measurement": "Kd", "setting": "Ce-2 Thr13Ser", "value": 0.085, "unit": "nM"}, {"measurement": "Kd", "setting": "Ce-2", "value": 0.5, "unit": "nM"}, {"measurement": "Kd", "setting": "Ce-1 NHOH", "value": 12, "unit": "nM"}]}]}
